Reference: PubChem BioAssay AID1996
In brackets after ≈: the same amount, converted by molar mass.

Settings: buffer; pH 7.4; 200.0 µM

solubility kinetic	Compound
< 0.4 µg/mL	O=C(COC(=O)c1ccccc1O)Nc1cc([N+](=O)[O-])ccc1Cl
4.4 µg/mL (≈ 14 µM)	O=C(COC(=O)/C=C/c1ccc(Cl)c(Cl)c1)NC1CC1
63.7 µg/mL (≈ 130 µM)	O=C(COC(=O)Cc1ccc(S(=O)(=O)N2CCOCC2)s1)Nc1ccc(OC(F)F)cc1
> 52.9 µg/mL	Cc1cc(C(=O)OCC(=O)Nc2cccc(S(N)(=O)=O)c2)c(C)o1
5.9 µg/mL (≈ 16.9 µM)	COc1ccc(Oc2ncccc2NC(=O)c2cccc(C)c2C)cc1
40.6 µg/mL (≈ 146 µM)	O=C(CSc1ccccc1)NC1CCCCCCC1
> 53.2 µg/mL	CCN(C(=O)CSc1nnc(C)c(=O)[nH]1)c1cccc2ccccc12
> 47.9 µg/mL	COc1cccc(CC(=O)OCC(=O)NC2CCCCCC2)c1
> 39.2 µg/mL	CCOC(=O)CN1C(=O)CC(c2ccccc2)C1=O (stereo not given)
1.9 µg/mL (≈ 5.82 µM)	COc1cccc(NC(=O)CN2C(=O)COc3ccc(C)cc32)c1
> 40.1 µg/mL	NC(=O)/C(=C\c1cccnc1)NC(=O)c1ccccc1
< 0.6 µg/mL	CCOC(=O)c1cnc2c(ccc3ccccc32)c1Cl
7 µg/mL (≈ 15.2 µM)	CCOc1cc(N2CCOCC2)c(OCC)cc1NC(=O)COC(=O)c1c(CC)noc1C
> 42.4 µg/mL	CC1(C)CC(=O)C=C(NCCc2c[nH]c3ccccc23)C1
36.1 µg/mL (≈ 142 µM)	O=C(NC1CCOc2ccccc21)c1ccccn1 (stereo not given)
22.3 µg/mL (≈ 72.7 µM)	O=C(CN1CCCC1)Nc1ccc(Cl)cc1C(F)(F)F
> 59.2 µg/mL	COc1ccc(C(=O)NCC(=O)OCC(=O)N2CC(C)OC(C)C2)cc1OC (stereo not given)
< 0.2 µg/mL	Cc1cc(NC(=O)c2ccc([N+](=O)[O-])cc2)no1
7.4 µg/mL (≈ 23.4 µM)	C=CCOC(=O)C1=C(C)NC(=O)NC1c1ccc(OCC)cc1 (stereo not given)
> 49.9 µg/mL	Clc1ccccc1Cc1noc(CN2CCN3CCCC3C2)n1 (stereo not given)
36.6 µg/mL (≈ 135 µM)	CC(CCc1ccccc1)NC(=O)c1cccc(F)c1 (stereo not given)
14.7 µg/mL (≈ 43.8 µM)	O=C(COc1ccccc1)NCCSCc1ccccc1Cl
1.4 µg/mL (≈ 4.11 µM)	CC(=O)c1ccc(OCC(=O)Nc2ccc3nc(C)sc3c2)cc1
< 0.2 µg/mL	COc1ccc(NC(=O)Nc2nc3ccccc3s2)cc1
48.1 µg/mL (≈ 146 µM)	CS(=O)(=O)N(CC(=O)NC1CCCCC1)c1cccc(F)c1

solubility kinetic	Compound
3.3 µg/mL (≈ 9.84 µM)	COC(=O)C(C)Oc1ccc(-c2nccc(-c3ccccn3)n2)cc1 (stereo not given)
45 µg/mL (≈ 131 µM)	COC(=O)c1ccccc1NC(=O)CNC(=O)c1ccc(OC)cc1
> 24.8 µg/mL	CCc1ccc(C(N)=S)cc1
19.2 µg/mL (≈ 62.9 µM)	CC(=O)Nc1cccc(NC(=O)c2cccc3cccnc23)c1
34.9 µg/mL (≈ 111 µM)	O=C(Oc1ccc(Oc2ccccc2)cc1)N1CCC(O)CC1
9.6 µg/mL (≈ 23.5 µM)	O=C(COC(=O)c1cccs1)Nc1cccc(S(=O)(=O)N2CCCCC2)c1
17.4 µg/mL (≈ 45.3 µM)	N#CCC(=O)Nc1ccc(C(=O)OCC(=O)NC(=O)NCc2ccco2)cc1
0.6 µg/mL (≈ 1.66 µM)	O=C(Nc1ccccc1C(=O)Nc1ccccn1)c1ccc([N+](=O)[O-])cc1
> 39.5 µg/mL	CCOc1ccccc1NC(=O)COC(=O)C1CC1
> 48.1 µg/mL	CCOc1ccc(C(=O)NCCN2CCCCC2)c(OCC)c1
> 50.1 µg/mL	O=C(CCCNC(=O)c1ccc(Cl)cc1)Nc1ncccc1O
> 42 µg/mL	O=C(O)c1cccc2c(/C=N/Nc3ccccn3)c[nH]c12
37.7 µg/mL (≈ 134 µM)	CC1(C)CC(CCN)(Cc2ccccc2Cl)CCO1 (stereo not given)
38.6 µg/mL (≈ 131 µM)	CC(C)CCNC(=O)CSc1nc2ccccc2s1
11.7 µg/mL (≈ 26.5 µM)	CN(c1ccc(F)cc1)S(=O)(=O)c1ccc(Cl)c(C(=O)OCC(=O)NC2CC2)c1
> 52 µg/mL	COc1ccc(NC(=O)CO/N=C2/CCCc3nonc32)c(OC)c1
31.6 µg/mL (≈ 130 µM)	Cc1ccc(CNC(=O)Nc2ccccc2)n1C
34.6 µg/mL (≈ 94.2 µM)	COc1cccc(CN(C)C(=O)c2sccc2-c2ccccc2)c1OC
3.8 µg/mL (≈ 12.6 µM)	Cc1nc(NC(=O)C2CC2)sc1C(=O)Nc1ccccc1
41.2 µg/mL (≈ 125 µM)	CCN(CC(=O)N1CCOCC1)S(=O)(=O)c1ccc(F)cc1
37.1 µg/mL (≈ 135 µM)	CC1CCN(C(=O)CCNC(=O)c2ccccc2)CC1
0.6 µg/mL (≈ 2.14 µM)	CC1CCCN(c2c3c(nc4ccccc24)CCCC3)C1 (stereo not given)
0.5 µg/mL (≈ 2.01 µM)	CCn1c(O)c(C=Nc2ccccc2)sc1=O
45.4 µg/mL (≈ 127 µM)	Cc1ccc(C)c(NC(=S)N2CCC(NC(=O)c3ccco3)CC2)c1
> 49.1 µg/mL	NS(=O)(=O)c1ccc(NC(=S)NC(=O)C2CCCC2)cc1

Continued, compound first:

Compound	solubility kinetic
Cc1ccc(S(=O)(=O)N2CCN(c3ccccc3)CC2)cc1C	< 0.4 µg/mL
CN(C)c1ccc2nsnc2c1[N+](=O)[O-]	33.4 µg/mL (≈ 149 µM)
CC(C)CN=Cc1c(O)c([N+](=O)[O-])cc2oc3c(c12)CCCC3	6.5 µg/mL (≈ 20.5 µM)
O=c1[nH]c(NCCO)nnc1Cc1ccc(Cl)cc1	> 42.1 µg/mL
COc1ccc2occ(C(=O)c3ccc(N)cc3)c2c1	1.7 µg/mL (≈ 6.36 µM)
O=C(CSc1nccc(=O)[nH]1)c1ccco1	> 35.4 µg/mL
O=C(Nc1ccc(Br)cc1)c1ccc2c(c1)OCO2	1.3 µg/mL (≈ 4.06 µM)
Cc1oc2c(cc(NS(=O)(=O)c3ccc(Cl)cc3)c3ccccc32)c1C(=O)O	> 62.4 µg/mL
COc1ccc2nc(NC(=O)C34CC5CC(CC(NC(C)=O)(C5)C3)C4)sc2c1	41.2 µg/mL (≈ 103 µM)
Cc1nnc(SCc2nnc(-c3cccs3)o2)n1C	> 44 µg/mL
COc1cc(NC(=S)N2CCCCC2C)c(OC)cc1Cl (stereo not given)	44.7 µg/mL (≈ 136 µM)
O=S(=O)(NCCn1cccc1)c1ccc2ccccc2c1	2.1 µg/mL (≈ 6.99 µM)
O=C(O)C1CCCCC1C(=O)NCCCN1CCCC1=O (stereo not given)	41.4 µg/mL (≈ 140 µM)
Cc1ccc(NC(=O)O/N=C/c2ccc(Br)cc2)cc1	1.4 µg/mL (≈ 4.2 µM)
CN1CCN(Cc2nnc(-c3ccccc3)o2)CC1	> 38.7 µg/mL
Cc1ccc(N2C(=O)CN(Cc3cccs3)C2=S)cc1C	< 0.3 µg/mL
Nc1nc(-c2ccc3c(c2)OCCO3)c(CC(=O)O)s1	41.1 µg/mL (≈ 141 µM)
C=COC(=O)c1sc2nc(C)cc(C)c2c1N	0.5 µg/mL (≈ 2.01 µM)

Compound	solubility kinetic
O=C(NCc1ccc2c(c1)OCO2)Nc1ccc([N+](=O)[O-])cc1	0.9 µg/mL (≈ 2.85 µM)
Cc1ccccc1/C=C1\C(=O)Nc2ccc(F)cc21	0.9 µg/mL (≈ 3.55 µM)
CN(C)C(=O)Oc1cccc([N+](C)(C)C)c1.[Br-]	> 45.5 µg/mL
Cc1c(C(=O)N(C)Cc2nc3ccccc3c(=O)[nH]2)oc2ccccc12	4.6 µg/mL (≈ 13.2 µM)
O=S(=O)(c1cccc2cccnc12)N1CCCc2ccccc21	1.3 µg/mL (≈ 4.01 µM)
O=C1c2ccc(Oc3ccc([N+](=O)[O-])cc3)cc2C(=O)N1CCCO	49 µg/mL (≈ 143 µM)
CO/N=C/c1c(-c2ccc(Cl)cc2)nc2cc(C)ccn12	0.3 µg/mL (≈ 1 µM)
NS(=O)(=O)c1ccc(C(=O)Nc2ccc(-c3nc4cccnc4s3)cc2)cc1	2.5 µg/mL (≈ 6.09 µM)
CCCNC(=O)Cn1nc(C(F)(F)F)c2c1CCC2	> 41.3 µg/mL
CCN(CC)c1ccc(C=Nc2cccnc2Cl)c(O)c1	33.3 µg/mL (≈ 110 µM)
CCC1(C)NC(=O)N(CC(=O)Nc2cc(C)on2)C1=O (stereo not given)	> 42 µg/mL
CCN1CCn2c3c(c4cccc(C)c42)CCCC31.Cl (stereo not given)	33.6 µg/mL
O=c1oc2ccccc2c(Nc2ccc(Cl)cc2)c1[N+](=O)[O-]	0.9 µg/mL (≈ 2.84 µM)
CCCc1c(C)nc(SCC(=O)C(C)(C)C)nc1OC(=O)N(C)C	46.8 µg/mL (≈ 132 µM)
CCN1CCCC1CNC(=O)CCc1nnc(CCC2CCCCC2)o1 (stereo not given)	> 54.4 µg/mL
Cc1cc(C)cc(NC(=O)C[n+]2ccccc2)c1.[Cl-]	> 41.5 µg/mL
COc1ccc(CSc2nc(O)cc(=O)n2CC(C)C)cc1F	> 50.8 µg/mL
